Reference: patent US8877819B2, “Methods for treating heat stress and related compositions” (Georgetown University, priority 2008, dated 2014)

Biological target: T1, angiotensin converting enzyme (ACE) (Rattus norvegicus, UniProt P47820)
T1 construct: from tissue; host or cells: rat serum
T1 sequence (P47820 36-1313): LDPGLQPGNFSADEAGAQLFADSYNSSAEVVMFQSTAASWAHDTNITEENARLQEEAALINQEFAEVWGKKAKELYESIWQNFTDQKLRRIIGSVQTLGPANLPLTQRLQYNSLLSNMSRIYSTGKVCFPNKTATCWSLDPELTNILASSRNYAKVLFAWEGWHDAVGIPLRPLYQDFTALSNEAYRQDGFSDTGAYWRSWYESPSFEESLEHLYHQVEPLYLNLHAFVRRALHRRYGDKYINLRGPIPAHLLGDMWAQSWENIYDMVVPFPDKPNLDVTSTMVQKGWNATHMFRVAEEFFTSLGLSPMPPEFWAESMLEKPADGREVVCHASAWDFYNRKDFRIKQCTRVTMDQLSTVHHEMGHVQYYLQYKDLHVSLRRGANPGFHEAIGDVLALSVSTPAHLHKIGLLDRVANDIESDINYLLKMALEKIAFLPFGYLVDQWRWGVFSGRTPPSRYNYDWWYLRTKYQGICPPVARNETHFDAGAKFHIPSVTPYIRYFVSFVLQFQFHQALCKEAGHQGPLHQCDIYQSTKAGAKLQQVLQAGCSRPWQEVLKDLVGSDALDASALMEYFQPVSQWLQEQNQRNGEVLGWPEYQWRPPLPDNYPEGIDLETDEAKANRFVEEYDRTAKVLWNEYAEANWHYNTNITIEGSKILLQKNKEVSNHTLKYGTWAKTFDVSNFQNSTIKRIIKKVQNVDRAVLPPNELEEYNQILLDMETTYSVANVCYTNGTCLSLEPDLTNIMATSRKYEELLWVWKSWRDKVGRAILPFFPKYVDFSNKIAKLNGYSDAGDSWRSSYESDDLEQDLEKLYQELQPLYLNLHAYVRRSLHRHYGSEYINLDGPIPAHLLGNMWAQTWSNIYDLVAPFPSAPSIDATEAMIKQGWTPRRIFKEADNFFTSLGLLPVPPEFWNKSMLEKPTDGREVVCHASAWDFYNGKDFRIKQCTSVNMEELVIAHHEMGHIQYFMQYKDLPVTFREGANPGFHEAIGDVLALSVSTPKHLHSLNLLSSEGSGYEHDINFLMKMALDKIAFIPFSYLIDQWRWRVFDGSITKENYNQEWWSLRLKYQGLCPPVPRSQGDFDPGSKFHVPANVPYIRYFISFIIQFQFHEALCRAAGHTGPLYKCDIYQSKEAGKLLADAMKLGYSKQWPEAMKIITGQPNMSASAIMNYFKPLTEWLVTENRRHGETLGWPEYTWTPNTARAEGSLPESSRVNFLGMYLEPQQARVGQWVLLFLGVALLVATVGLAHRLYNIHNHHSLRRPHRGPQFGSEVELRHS
Experiment: Serum Angiotensin Converting Enzyme (ACE) activity
Format: in vivo, Zucker Fatty Rats
Procedure: Serum ACE activity was measured by a commercial kit (Sigma Co. Ltd, St. Louis, Mo.). This spectrophotometric method utilizes the synthetic tripeptide substrate N-[3-(2-furyl)acryloyl]-phenylalanylglcylglcine (FAPGG). FAPGG is hydrolyzed by ACE to furylacryloylphenylalanine (FAP) and glycylglycine. Hydrolysis of FAPGG results in a decreased absorbency at 340 nm. Serum ACE activity was determined by comparing the sample reaction rate to that obtained with an appropriate ACE calibrator.

## CC1=C(/C=C/C(C)=C/C=C/C(C)=C/C=C/C=C(C)/C=C/C=C(C)/C=C/C2=C(C)C(=O)[C@@H](O)CC2(C)C)C(C)(C)C[C@H](O)C1=O [Asta, astaxanthin]
Experiment 2, Hi Asta, astaxanthin 25 mg/kg in feed
  ACE activity: 24.2 ± 1.3 units
Experiment 2, Lo Asta, astaxanthin 5 mg/kg in feed
  ACE activity: 27.1 ± 1.4 units
